Experimental findings from ChEMBL document CHEMBL5325496, “Discovery, SAR Study of GST Inhibitors from a Novel Quinazolin-4(1H)-one Focused DNA-Encoded Library” (J Med Chem, 2023) are described below.

The species entered for one assay is Homo sapiens. The experiment in a line: Inhibition of glutathione S-transferase (unknown origin) using CDNB as substrate at 50 uM by spectrophotometric analysis relative to control.
Assay [1] has as its target T1, Glutathione-S-transferase (Schistosoma japonicum, UniProt Q26513).
T1 sequence (Q26513 whole entry): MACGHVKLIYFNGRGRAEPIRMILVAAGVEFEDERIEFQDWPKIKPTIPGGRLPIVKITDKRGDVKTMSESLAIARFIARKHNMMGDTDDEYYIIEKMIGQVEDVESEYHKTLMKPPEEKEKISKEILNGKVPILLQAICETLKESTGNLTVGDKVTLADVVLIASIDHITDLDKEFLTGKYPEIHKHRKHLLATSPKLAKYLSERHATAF
The experiment in a line: Inhibition of Schistosoma japonicum GST by spectrophotometric analysis.

Assay [2] deals with T2, Glutathione S-transferase Mu 2 (Homo sapiens, UniProt P28161).
T2 sequence (P28161 whole entry): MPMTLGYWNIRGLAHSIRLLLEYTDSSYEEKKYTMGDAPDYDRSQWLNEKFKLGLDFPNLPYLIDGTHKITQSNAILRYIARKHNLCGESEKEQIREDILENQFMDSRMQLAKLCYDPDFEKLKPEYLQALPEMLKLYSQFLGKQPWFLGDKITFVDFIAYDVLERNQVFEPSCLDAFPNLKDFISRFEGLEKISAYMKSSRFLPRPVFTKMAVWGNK
The experiment in a line: Inhibition of human GSTM2 by spectrophotometric analysis.

As for `O=C(O)c1cc(-c2ccc3nc(-c4ccc(Cl)s4)n(Cc4ccc(Cl)cc4)c(=O)c3c2)ccc1F`, the inhibition in the assay listed under Homo sapiens turned out to be 54.4%.
As for `C=C(CC)C(=O)c1ccc(OCC(=O)O)c(Cl)c1Cl` [ETHACRYNIC ACID], the half-inhibitory concentration (IC50) in assay [1] was 1.84 µM; in assay [2], greater than 20 µM.
With `O=C(O)c1cccc(-c2ccc3nc(-c4ccc(Cl)s4)n(Cc4ccc(Cl)cc4)c(=O)c3c2)c1`, the inhibition in the assay listed under Homo sapiens is 55.6%.
Same read-out and setting: next, `O=C(O)CCCn1c(-c2ccc(Cl)s2)nc2ccc(-c3ccccc3-c3nn[nH]n3)cc2c1=O`: 76.6%; `CCOC(=O)CCn1c(-c2ccc(Cl)s2)nc2ccc(-c3ccccc3-c3nn[nH]n3)cc2c1=O`: 87.5%; `Cn1nccc1-c1nc2ccc(-c3ccccc3-c3nn[nH]n3)cc2c(=O)n1Cc1ccc(Cl)cc1`: 65.3%.
On to `COc1cc(/C=C/C(=O)CC(=O)/C=C/c2ccc(O)c(OC)c2)ccc1O` [CURCUMIN], for which the midpoint of inhibition in assay [2], the IC50, lay at 1.81 µM.
In the assay listed under Homo sapiens, `O=C(O)c1ccccc1-c1ccc2nc(-c3ccc(Cl)s3)n(Cc3ccc(Cl)cc3)c(=O)c2c1` yielded an inhibition of 78.7%. In addition, the values for the IC50 in assay [1] and in assay [2] were 16.6 µM and greater than 20 µM, respectively.
With `O=c1c2cc(-c3ccccc3-c3nn[nH]n3)ccc2nc(-c2cccs2)n1Cc1ccc(Cl)cc1`, in the assay filed under Homo sapiens, the inhibition was determined as 89%. Besides, the IC50 in assay [1] worked out at 4.26 µM; in assay [2] it was 6.15 µM.
The molecule `O=c1c2cc(-c3ccccc3-c3nn[nH]n3)ccc2ncn1Cc1ccc(Cl)cc1` came in with an inhibition in the assay filed under Homo sapiens of 20.3%.
`O=C(O)C(Cc1ccc(Cl)cc1)Cn1c(-c2ccc(Cl)s2)nc2ccc(-c3ccccc3-c3nn[nH]n3)cc2c1=O` (stereo not drawn): the inhibition in the assay filed under Homo sapiens was 98.8%. For the same molecule, the IC50 in assay [1] turned out to be 1.55 µM; in assay [2], 2.02 µM.
In turn, `O=c1c2cc(-c3ccccc3-c3nn[nH]n3)ccc2nc(-c2cccc(Cl)c2)n1Cc1ccc(Cl)cc1` showed an inhibition in the assay filed under Homo sapiens of 45.8%.
Take `O=C(O)CCn1c(-c2ccc(Cl)s2)nc2ccc(-c3ccccc3-c3nn[nH]n3)cc2c1=O`: the inhibition in the assay filed under Homo sapiens worked out at 87.3%. Further, the IC50 in assay [1] stood at 9.47 µM; in assay [2], 2.4 µM.
As for `CS(=O)(=O)c1ccccc1-c1ccc2nc(-c3ccc(Cl)s3)n(Cc3ccc(Cl)cc3)c(=O)c2c1`, in the assay filed under Homo sapiens, the inhibition was 12.9%.
Molecule `COC(=O)c1ccccc1-c1ccc2nc(-c3ccc(Cl)s3)n(Cc3ccc(Cl)cc3)c(=O)c2c1` registered an inhibition in the assay filed under Homo sapiens of 24.8%.
Same read-out and setting: the result for `O=c1c2cc(-c3ccccc3-c3nn[nH]n3)ccc2nc(-c2ccc(Cl)s2)n1CCc1ccc(Cl)cc1` reads 90.8%; that for `NC(=O)c1cccc(-c2ccc3nc(-c4ccc(Cl)s4)n(Cc4ccc(Cl)cc4)c(=O)c3c2)c1`, 24.6%.
For `O=c1c2cc(-c3ccccc3-c3nn[nH]n3)ccc2nc(-c2ccc(Cl)s2)n1Cc1ccc(Cl)cc1`, the inhibition in the assay listed under Homo sapiens stood at 92.5%. The results for the IC50 in assay [1] and in assay [2] were 5.46 µM and 4.03 µM, respectively.
Taken in the same sequence, the figures for `O=c1c2cc(-c3ccccc3-c3nn[nH]n3)ccc2nc(-c2ccc(Cl)s2)n1Cc1ccccc1` were 83.6%, 8.86 µM and 3.38 µM.
On to `O=c1c2cc(Br)ccc2nc(-c2ccc(Cl)s2)n1Cc1ccc(Cl)cc1`, for which the inhibition in the assay listed under Homo sapiens is 20.2%.
